Earlier results as cited in PubChem BioAssay AID1259409 (Chemical Carcinogenesis Research Information System (CCRIS), 2018).

System: rodent chemically induced tumor inhibition, incidence and multiplicity
Assay: CCRIS tumor inhibitor studies
Conditions: Dose [Inhibitor]: 0

| Compound | tumour outcome (control, treated, inhibition, significance) (Carcinogen: 7,12-DIMETHYLBENZ[A]ANTHRACENE, 57-97-6, 0.01% IN DIET BEGINNING 3 WK POST CARCINOGEN DOSE AND CONTINUING FOR 6 WK (STUDY DURATION: 9 WK), Route [Inhibitor]: ORAL, Species: MOUSE, Strain/Sex: SWISS/FEMALE, Target Tissue: Type of Lesion: LUNG: ADENOMA, Dose [Carcinogen]: 40 UG ONCE ADMINISTERED TO NEWBORN MICE, Promoter: NONE USED) | tumour outcome (control, treated, inhibition, significance) (Carcinogen: 7,12-DIMETHYLBENZ[A]ANTHRACENE, 57-97-6, 0.01% IN DIET BEGINNING 3 WK POST CARCINOGEN DOSE AND CONTINUING FOR 6 WK (STUDY DURATION: 9 WK), Route [Inhibitor]: ORAL, Species: MOUSE, Strain/Sex: SWISS/MALE, Target Tissue: Type of Lesion: LUNG: ADENOMA, Dose [Carcinogen]: 40 UG ONCE ADMINISTERED TO NEWBORN MICE, Promoter: NONE USED) | tumour outcome (control, treated, inhibition, significance) (Carcinogen: AZOXYMETHANE (25843-45-2), 500 PPM IN DIET FOR 4 WK, BEGINNING 1 WK BEFORE THE FIRST CARCINOGEN DOSE (STUDY DURATION: 38 WK), Route [Inhibitor]: ORAL, Species: RAT, Strain/Sex: F344/MALE, Target Tissue: Type of Lesion: LARGE INTESTINE: ADENOCARCINOMA, Dose [Carcinogen]: 15 MG/KG BW 1 INJECTION/WK FOR 3 WK, Promoter: NONE USED) | tumour outcome (control, treated, inhibition, significance) (Carcinogen: AZOXYMETHANE (25843-45-2), 500 PPM IN DIET FOR 4 WK, BEGINNING 1 WK BEFORE THE FIRST CARCINOGEN DOSE (STUDY DURATION: 38 WK), Route [Inhibitor]: ORAL, Species: RAT, Strain/Sex: F344/MALE, Target Tissue: Type of Lesion: LARGE INTESTINE: ADENOMA, Dose [Carcinogen]: 15 MG/KG BW 1 INJECTIONS/WK FOR 3 WK, Promoter: NONE USED) | tumour outcome (control, treated, inhibition, significance) (Carcinogen: AZOXYMETHANE (25843-45-2), 500 PPM IN DIET FOR 4 WK, BEGINNING 1 WK BEFORE THE FIRST CARCINOGEN DOSE (STUDY DURATION: 38 WK), Route [Inhibitor]: ORAL, Species: RAT, Strain/Sex: F344/MALE, Target Tissue: Type of Lesion: SMALL INTESTINE: ADENOCARCINOMA, Dose [Carcinogen]: 15 MG/KG BW 1 INJECTION/WK FOR 3 WK, Promoter: NONE USED) | tumour outcome (control, treated, inhibition, significance) (Carcinogen: AZOXYMETHANE (25843-45-2), 500 PPM IN DIET FOR 4 WK, BEGINNING 1 WK BEFORE THE FIRST CARCINOGEN DOSE (STUDY DURATION: 38 WK), Route [Inhibitor]: ORAL, Species: RAT, Strain/Sex: F344/MALE, Target Tissue: Type of Lesion: SMALL INTESTINE: ADENOMA, Dose [Carcinogen]: 15 MG/KG BW 1 INJECTION/WK FOR 3 WK, Promoter: NONE USED) | tumour outcome (control, treated, inhibition, significance) (Carcinogen: AZOXYMETHANE (25843-45-2), 500 PPM IN DIET FOR 34 WK, BEGINNING 1 WK AFTER THE LAST CARCINOGEN DOSE (STUDY DURATION: 38 WK), Route [Inhibitor]: ORAL, Species: RAT, Strain/Sex: F344/MALE, Target Tissue: Type of Lesion: LARGE INTESTINE: ADENOCARCINOMA, Dose [Carcinogen]: 15 MG/KG BW 1 INJECTION/WK FOR 3 WK, Promoter: NONE USED) | tumour outcome (control, treated, inhibition, significance) (Carcinogen: AZOXYMETHANE (25843-45-2), 500 PPM IN DIET FOR 34 WK, BEGINNING 1 WK AFTER THE LAST CARCINOGEN DOSE (STUDY DURATION: 38 WK), Route [Inhibitor]: ORAL, Species: RAT, Strain/Sex: F344/MALE, Target Tissue: Type of Lesion: LARGE INTESTINE: ADENOMA, Dose [Carcinogen]: 15 MG/KG BW 1 INJECTION/WK FOR 3 WK, Promoter: NONE USED) | tumour outcome (control, treated, inhibition, significance) (Carcinogen: AZOXYMETHANE (25843-45-2), 500 PPM IN DIET FOR 34 WK, BEGINNING 1 WK AFTER THE LAST CARCINOGEN DOSE (STUDY DURATION: 38 WK), Route [Inhibitor]: ORAL, Species: RAT, Strain/Sex: F344/MALE, Target Tissue: Type of Lesion: SMALL INTESTINE: ADENOCARCINOMA, Dose [Carcinogen]: 15 MG/KG BW 1 INJECTION/WK FOR 3 WK, Promoter: NONE USED) | tumour outcome (control, treated, inhibition, significance) (Carcinogen: AZOXYMETHANE (25843-45-2), 500 PPM IN DIET FOR 34 WK, BEGINNING 1 WK AFTER THE LAST CARCINOGEN DOSE (STUDY DURATION: 38 WK), Route [Inhibitor]: ORAL, Species: RAT, Strain/Sex: F344/MALE, Target Tissue: Type of Lesion: SMALL INTESTINE: ADENOMA, Dose [Carcinogen]: 15 MG/KG BW 1 INJECTION/WK FOR 3 WK, Promoter: NONE USED) | tumour outcome (control, treated, inhibition, significance) (Carcinogen: BENZO[A]PYRENE, 50-32-8, 0.01% IN DIET BEGINNING 3 WK POST CARCINOGEN DOSE AND CONTINUING FOR 6 WK (STUDY DURATION: 9 WK), Route [Inhibitor]: ORAL, Species: MOUSE, Strain/Sex: SWISS/FEMALE, Target Tissue: Type of Lesion: LUNG: ADENOMA, Dose [Carcinogen]: 1 MG ONCE ADMINISTERED TO NEWBORN MICE, Promoter: NONE USED) | tumour outcome (control, treated, inhibition, significance) (Carcinogen: BENZO[A]PYRENE, 50-32-8, 0.01% IN DIET BEGINNING 3 WK POST CARCINOGEN DOSE AND CONTINUING FOR 6 WK (STUDY DURATION: 9 WK), Route [Inhibitor]: ORAL, Species: MOUSE, Strain/Sex: SWISS/MALE, Target Tissue: Type of Lesion: LUNG: ADENOMA, Dose [Carcinogen]: 1 MG ONCE ADMINISTERED TO NEWBORN MICE, Promoter: NONE USED) | tumour outcome (control, treated, inhibition, significance) (Carcinogen: BENZO[A]PYRENE, 50-32-8, 1 UMOL IN 0.2 ML ACETONE APPLIED 24 AND 1 HR PRIOR TO CARCINOGEN DOSE (STUDY DURATION: 22 WK), Route [Inhibitor]: DERMAL, Species: MOUSE, Strain/Sex: CD-1/FEMALE, Target Tissue: Type of Lesion: SKIN: TUMOR, Dose [Carcinogen]: 0.3 UMOL IN 0.2 ML ACETONE ONCE, Promoter: 12-O-TETRADECANOYLPHORBOL 13-ACETATE, 16561-29-8) | tumour outcome (control, treated, inhibition, significance) (Carcinogen: N-METHYLNITROSOUREA, 684-93-5, DIETHYLNITROSAMINE, 55-18-5, N,N-DIBUTYLNITROS- AMINE, 924-16-3, Carcinogen: N-METHYLNITROSOUREA, 684-93-5, DIETHYLNITROSAMINE, 55-18-5, N,N-DIBUTYLNITROS- AMINE, 924-16-3, 0.01% IN DIET FOR 16 WK BEGINNING POST LAST CARCINOGEN DOSE (STUDY DURATION: 20 WK), Route [Inhibitor]: ORAL, Species: RAT, Strain/Sex: F344/MALE, Target Tissue: Type of Lesion: LUNG: ADENOMA, Dose [Carcinogen]: 100 MG/KG DIETHYLNITROSAMINE INTRAPERITONEAL ON D 1 THEN 200 MG/KG N-METHYLNITROSOUREA ON D 2, 5, 8, 11, AND 0.05% N,N-D) | tumour outcome (control, treated, inhibition, significance) (Carcinogen: VINYL CARBAMATE, 15805-73-9, 2.5 UMOL IN 0.2 ML ACETONE ONCE 10 MIN PRIOR TO CARCINOGEN DOSE (STUDY DURATION: 22 WK), Route [Inhibitor]: DERMAL, Species: MOUSE, Strain/Sex: ICR/FEMALE, Target Tissue: Type of Lesion: SKIN: PAPILLOMA, Dose [Carcinogen]: 5.8 UMOL IN 0.2 ML ACETONE ONCE, Promoter: 12-O-TETRADECANOYLPHORBOL 13-ACETATE, 16561-29-8) | tumour outcome (control, treated, inhibition, significance) (Carcinogen: 7,12-DIMETHYLBENZ[A]ANTHRACENE, 57-97-6, 162 NMOL IN 100 µL ACETONE 2/WK FOR 20 WK BEGINNING 1 WK POST CARCINOGEN DOSE (STUDY DURATION: 21 WK), Route [Inhibitor]: DERMAL, Species: MOUSE, Strain/Sex: ICR/FEMALE, Target Tissue: Type of Lesion: SKIN: TUMOR, Dose [Carcinogen]: 100 UG ONCE, Promoter: 12-O-TETRADECANOYLPHORBOL-13-ACETATE, 16561-29-8) | tumour outcome (control, treated, inhibition, significance) (Carcinogen: 7,12-DIMETHYLBENZ[A]ANTHRACENE, 57-97-6, 1620 NMOL IN 100 µL ACETONE 2/WK FOR 20 WK BEGINNING POST CARCINOGEN DOSE (STUDY DURATION: 21 WK), Route [Inhibitor]: DERMAL, Species: MOUSE, Strain/Sex: ICR/FEMALE, Target Tissue: Type of Lesion: SKIN: TUMOR, Dose [Carcinogen]: 100 UG ONCE, Promoter: 12-O-TETRADECANOYLPHORBOL-13-ACETATE, 16561-29-8) |
| --- | --- | --- | --- | --- | --- | --- | --- | --- | --- | --- | --- | --- | --- | --- | --- | --- | --- |
| COc1cc(CNC(=O)CCCC/C=C/C(C)C)ccc1O | 17/17 (100%), 20/22 (91%), 9%, not calculated | 10/10 (100%), 23/24 (96%), 4%, not calculated | 9/15 (60%), 4/17 (24%), 60%, p = 0.0407 | 4/15 (27%), 1/17 (6%), 78%, not significant | 4/15 (27%), 3/17 (18%), 33%, not significant | 1/15 (7%), 0/17 (0%), 100%, not significant | 9/15 (60%), 6/14 (43%), 28%, not significant | 4/15 (27%), 2/14 (14%), 48%, not significant | 4/15 (27%), 3/14 (21%), 22%, not significant | 1/15 (7%), 0/14 (0%), 100%, not significant | 8/34 (24%), 4/30 (13%), 46%, p<0.05 | 7/35 (20%), 3/34 (9%), 55%, p<0.01 | 84%, 68%, 19%, not significant | 9/16 (56%), 2/15 (13%), 77%, p<0.02 | 70%, 53%, 24%, not significant |  |  |
| COc1c(C)c(O)c(C(C)=O)c(O)c1Cc1c(O)c(CC=C(C)C)c(O)c(C(C)=O)c1O |  |  |  |  |  |  |  |  |  |  |  |  |  |  |  | 40%, 36%, 10%, not significant | 52%, 0%, 100%, not calculated |
